Read-outs that look alike come from different tables or passages of the source.

Data set [1] relates to HIV-1SKI. The data set is described as follows: CD4-dependent HIV transmission inhibition assay (cell-associated virus, GHOST cells). In kind it is cell-based.
For data set [2], the system named is HIV-1IIIB. Briefly: microbe, parasite or virus in culture. It is filed as cell-based.
Data set [3] has as its system HIV-1BaL. The data set is described as follows: Virus attachment assay. Particulars: Assay Virus HIV-1BaL. In kind it is cell-based.
Data set [4] relates to HIV-1JR-CSF. The data set is described as follows: CD4-dependent HIV transmission inhibition assay (cell-associated virus, GHOST cells). It is filed as cell-based.
In data set [5] the test system is MAGI-R5 or HeLa CD4 LTR β-gal cells.
Data set [6] can be described thus: in vitro. The following applies: human.
A short description of data set [7]: in vitro. The following applies: human. The source holds these as a separate data set.
A short description of data set [8]: in vitro. Particulars: human. This is another data set of the same source.
In data set [9] the test system is CXCR4 tropic (CMU06) strain of HIV-1. Briefly: HIV-1 infection and replication in PBMCs, RT activity. In kind it is cell-based. Particulars: seven days, CXCR4 virus.
In data set [10] the test system is CCR5 tropic (JRCSF) strain of HIV-1. The description is as above. In kind it is cell-based. Particulars: seven days, CCR5 virus.
In data set [11] the test system is dual tropic (BR/92/014) strain of HIV-1. The description is as above. The following applies: seven days, dual tropic virus. In kind it is cell-based.
The test system of data set [12] is GHOST cells.
Data set [13] deals with HeLa CD4 LTR β-gal cells.
For data set [14] the following is noted: cited from earlier work.
The mark [15] stands for this setting: Human immunodeficiency virus 1, CXCR4 Virus HIV-1SKI, cell-associated.
Setting [16] is: Human immunodeficiency virus 1, Assay Virus HIV-1JR-CSF.
The mark [17] stands for this setting: CXCR4 Virus HIV-1SKI, cell-associated.

The term IC50 denotes the concentration that inhibits the measured activity by half. The term IC90 denotes the point of the concentration-response curve where the effect stands at 90%. In the case of `c1cc(CN2CCCNCCNCCCNCC2)ccc1CN1CCCNCCNCCCNCC1` [AMD 3100], the IC50 in [1] (Human immunodeficiency virus 1, Pre-incubation pH: Standard Assay) was 10 nM; in data set [1] (Human immunodeficiency virus 1, pH 4, Pre-incubation pH 4.0) it was 1 nM; in [1] (Human immunodeficiency virus 1, pH 5.85, Pre-incubation pH 5.85), 6 nM; in data set [1] (Human immunodeficiency virus 1, pH 6.5, Pre-incubation pH 6.5), 80 nM; in data set [1] (setting [15]), 5 nM; in [2] (Human immunodeficiency virus 1), 1 nM. The IC50 was 3790 nM in data set [3] (Human immunodeficiency virus 1) and over 10000 nM in data set [4] (setting [16]). For the same compound, the IC90 in data set [1] (setting [15]) was 60 nM; in data set [2] (Human immunodeficiency virus 1), 8 nM; in data set [3] (Human immunodeficiency virus 1) it was over 10000 nM; in [4] (setting [16]), over 10000 nM. The CC50 in data set [5] (human), in data set [7] and in data set [8] was over 10000 nM each time. The CC50 at 4 h was over 10000 nM in data set [6], 4030 nM in data set [6] (pH 4), over 10000 nM in [6] (pH 5.85) and over 10000 nM in [6] (pH 6.5).

For the compound `Cc1cn([C@H]2C[C@H](N=[N+]=[N-])[C@@H](CO)O2)c(=O)[nH]c1=O` [AZT], the IC50 in data set [9] is under 0.1 nM; in [10], 1.48 nM; in data set [11] it was 0.27 nM.

For `Cc1ccc(-c2ccc3c(c2)C=C(C(=O)Nc2ccc(C[N+](C)(C)C4CCOCC4)cc2)CCC3)cc1` [TAK 779], the IC50 in [1] (setting [17]) was over 10 nM; in [2] (Assay Virus HIV-1IIIB, read-out: IC50), over 200 nM; in data set [3], under 0.002 nM; in [4] (Assay Virus HIV-1JR-CSF) it was 0.002 nM. The 90% effect concentration (IC90) in [1] (setting [17]) is over 10 nM; in [2] (Assay Virus HIV-1IIIB, read-out: IC90), over 200 nM; in data set [3], 0.04 nM; in data set [4] (Assay Virus HIV-1JR-CSF) it was 0.55 nM. Also, the results for the CC50 in data set [12], in data set [5] and in data set [13] were over 10 nM, over 200 nM and over 200 nM, respectively.

For the compound D-mallic acid, L-mallic acid, in data set [14] (room temperature), the “pKa Values (first value)” value is 3.4 and the “pKa Values (second value)” value is on record as 5.2.

On to “hydroxypropyl methylcellulose trimellitate [HPMCT]”, for which the CC50 is recorded as 0.38% in data set [12] (pH 4), 0.38% in data set [12] (pH 5.85) and 0.39% in data set [12] (pH 6.5).

phthalate: the “pKa of the second (remaining dissociable) carboxylic acid group” value in data set [14] (moiety on the cellulose backbone) is given as 5.28.

(Values after US20070148124A1, “Cellulose and acrylic based polymers and the use thereof for the treatment of infectious diseases” (priority 2004, published 2007).)
